Experiment [1] deals with Clostridium perfringens CP-013. The class given is in vivo, broiler chicken. As to conditions: for % Weight gain 1 to 14 d / % Weight gain 1 to 28 d / % Weight gain 14 to 28 d: [(final weight − initial weight)/initial weight] × 100; for Mean body weight (g) 1-d: day 1 (starting weight), n = 30.
The subject of the next experiment is Clostridium perfringens. It counts as in vivo, broiler chicken. To be noted: for Mean CFU per gram of chicken feces on Day 28 (n = 24): final day of study; for Mean CFU per gram of chicken feces on Day 21 (n = 6): five days after final challenge; for Mean CFU per gram of chicken feces on Day 10 (n = 10): pre-challenge.

Like-named read-outs stand apart in the source and are kept apart here. Bridge positions count the residues as written; N and C are the ends. Square brackets hold non-standard residues; d marks the D form. Peptide text beside a SMILES is read from it. * marks the point of attachment. Ileψ(thiazoline)Cys = CC[C@H](C)[C@H](N)C1=N[C@H](C(=O)*)CS1; dOrn = NCCC[C@@H](N)C(=O)O

We go through two compounds from patent publication US20180139985A1 (priority 2015, published 2018).

As to `CC[C@H](C)[C@H](N)C1=N[C@H](C(=O)N[C@@H](CC(C)C)C(=O)N[C@H](CCC(=O)O)C(=O)N[C@H](C(=O)N[C@H]2CCCCNC(=O)[C@H](CC(N)=O)NC(=O)[C@@H](CC(=O)O)NC(=O)[C@H](Cc3cnc[nH]3)NC(=O)[C@@H](Cc3ccccc3)NC(=O)[C@H]([C@@H](C)CC)NC(=O)[C@@H](CCCN)NC2=O)[C@@H](C)CC)CS1` [Bacitracin] ({Ileψ(thiazoline)Cys}-L[dE]IK[dOrn]I[dF]H[dD]N; lactam 4-C), in experiment [1] (55 ppm in feed), the “% Weight gain 1 to 14 d” value is recorded as 941.1%, the “% Weight gain 1 to 28 d” value was determined as 3566.0%, the “% Weight gain 14 to 28 d” value came to 252.1% and the “Mean body weight (g) 1-d” value came to 44.4 g. For the same compound, in the experiment with Clostridium perfringens (55 ppm in feed), the “Mean CFU per gram of chicken feces on Day 28 (n = 24)” value is 0.0 CFU per gram, the “Mean CFU per gram of chicken feces on Day 21 (n = 6)” value is listed as 2.5 × 10^1 ± 9.6 ^ CFU per gram and the “Mean CFU per gram of chicken feces on Day 10 (n = 10)” value was 8.6 × 10^2 ± 1.6 × 10^2 CFU per gram.

Virginiamycin: in experiment [1] (2 ppm in feed), the “% Weight gain 1 to 14 d” value is 1024.7%, the “% Weight gain 1 to 28 d” value was 3532.8%, the “% Weight gain 14 to 28 d” value is listed as 223.0% and the “Mean body weight (g) 1-d” value stood at 44.5 g. For the same compound, in the experiment with Clostridium perfringens (2 ppm in feed), the “Mean CFU per gram of chicken feces on Day 28 (n = 24)” value was found to be 0.0 CFU per gram, the “Mean CFU per gram of chicken feces on Day 21 (n = 6)” value was 0.0 CFU per gram and the “Mean CFU per gram of chicken feces on Day 10 (n = 10)” value is 1.1 × 10^3 ± 2.2 × 10^2 CFU per gram.
